Experiments:
human IDO1 [1] = molecular target: T1, human IDO1 (Homo sapiens, UniProt P14902); assay: Assessment of human IDO-1 inhibitory activity in Hela cells (Interferon-gamma stimulated HeLa cells, Ehrlich reagent, absorbance 490 nm); format: cell-based; parameters: endogenous in cells; host or cells: HeLa cells stimulated with interferon-gamma; details: Hela Human IDO-1 cellular assay
Experimental: Exemplary compounds were tested for inhibition of IDO activity.
Assessment of Human IDO-1 Inhibitory Activity in Hela Cells
HeLa cells were seeded at 20,000 cells per 30 μL per well with RPMI/phenol red free media containing 10% FBS in a 384-well tissue culture plate (black with clear bottoms). 50 nL of compound was added to cells and incubated at 37° C. for one hour. 20 μL of the recombinant human Interferon-gamma (R&D System, Cat. #285-IF, at final concentration of 10 ng/ml) or recombinant murine Interferon-gamma (PEPROTECH® Inc., Cat. #315-05, final concentration of 5 ng/ml) was added to activate IDO signaling. The cells were incubated for 18 hours in 37° C. incubator with 5% CO2.
Compound treatment was stopped by adding 5 μl trichloroacetic acid to a final concentration of 3%. Subsequently, the cell plate was further incubated at 50° C. for 30 minute. An equal volume supernatant (20 μL) and 2% (w/v) Ehrlich reagent (4-dimethylaminobenzaldehyde) in glacial acetic acid were mixed in a new clear bottom 384-well plate. This plate was incubated at room temperature for 30 minutes. Absorbance at 490 nm was measured on Envision plate reader.
Compound IC50 values were calculated using counts from unstimulated (no INF-gamma treatment) wells as 100% inhibition. INF-gamma treatment without compound treatment as 0% inhibition.

human IDO1 [2] = molecular target: T1, human IDO1; assay: Assessment of human IDO-1 inhibitory activity in HEK cells (human IDO1/HEK293 cells, kynurenine read-out with Ehrlich reagent, absorbance 490 nm); format: cell-based; parameters: expressed in transfected cells; details: HEK Human IDO-1 cellular assay
Summary of the method: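 HEK293 cells stably expressing human IDO1 were seeded at 10,000 per well in phenol red-free RPMI with 10% FBS, treated with compound for 20 h at 37 °C. Kynurenine was measured after TCA (0.2% final) and 30 min at 50 °C, using Ehrlich reagent, A490. IC50 normalised to DMSO (0%) and 500 nM reference standard (100%).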

T1 sequence (P14902 whole entry): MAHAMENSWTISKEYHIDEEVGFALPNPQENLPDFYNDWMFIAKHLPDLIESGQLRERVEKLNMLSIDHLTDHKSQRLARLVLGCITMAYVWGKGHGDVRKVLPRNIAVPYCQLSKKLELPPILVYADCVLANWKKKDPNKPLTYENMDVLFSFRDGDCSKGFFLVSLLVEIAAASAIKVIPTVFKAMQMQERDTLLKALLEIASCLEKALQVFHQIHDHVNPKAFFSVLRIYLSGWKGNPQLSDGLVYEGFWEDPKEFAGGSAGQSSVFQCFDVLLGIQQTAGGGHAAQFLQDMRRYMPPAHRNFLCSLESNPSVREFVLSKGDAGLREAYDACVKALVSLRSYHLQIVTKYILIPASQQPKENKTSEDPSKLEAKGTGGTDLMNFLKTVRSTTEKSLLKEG

IC50 (human IDO1 [1]) [nM] | IC50 (human IDO1 [2]) [nM] | SMILES
< 50 | – | CCC1COCCN1c1ccc([C@@H](COC)CC(=O)O)cc1Nc1ccc(Cl)cc1 (single isomer, unassigned) [Example 1300]
– | < 50 | COCC(CC(=O)O)c1ccc(N(CC(C)C)C2CCOCC2)c(NC(=O)Nc2ccc(OC)cc2F)c1 (single isomer, unassigned) [Example 1221, 3-(3-(3-(2-Fluoro-4-methoxyphenyl)ureido)-4-(isobutyl(tetrahydro-2H-pyran-4-yl)amino)phenyl)-4-methoxybutanoic]
– | > 50 | CC[C@H](CC(=O)O)c1ccc(N2CCC[C@@H]2C(C)(C)O)c(Nc2cnc(OCC3CC3)nc2)c1 (single isomer, unassigned) [Example 842]
– | < 5 | CCC(CC(=O)O)c1ccc(N(CC(C)C)C2CCCCC2)c(NC(=O)Cc2cc(F)ccc2F)c1 (single isomer, unassigned) [Example 1098 E2]
– | < 50 | COCC(CC(=O)O)c1ccc(N(CC(C)C)C2CCCCC2)c(NC(=O)Nc2cncnc2)c1 (racemic) [Example 990, (+/−)-3-(4-(Cyclohexyl(isobutyl)amino)-3-(3-(pyrimidin-5-yl)ureido)phenyl)-4-methoxybutanoic acid]
– | < 50 | CCC(CC(=O)O)c1ccc(N2CCOC[C@H]2C(C)C)c(Nc2cnc(OC)nc2)c1 (single isomer, unassigned) [Example 906]
– | < 5 | COCC(CC(=O)O)c1cc(F)c(N(CC(C)C)C2CCCCC2)c(NC(=O)Nc2cc(C)on2)c1 (single isomer, unassigned) [Example 1167, 3-(4-(cyclohexyl(isobutyl)amino)-3-fluoro-5-(3-(5-methylisoxazol-3-yl)ureido)phenyl)-4-methoxybutanoic acid]
– | < 5 | CCC(CC(=O)O)c1cc(NC(=O)Nc2cncnc2)c(N(CC(C)C)C2CCCCC2)cc1F (racemic) [Example 1122, (±)-3-(4-(cyclohexyl(isobutyl)amino)-2-fluoro-5-(3-(pyrimidin-5-yl)ureido)phenyl)pentanoic acid]
– | < 5 | CCC(CC(=O)O)c1cc(NC(=O)Nc2ccc3c(c2)OCO3)c(N(CC(C)C)CC(C)C)cc1F (racemic) [Example 1134, (±)-3-(5-(3-(Benzo[d][1,3]dioxol-5-yl)ureido)-4-(diisobutylamino)-2-fluorophenyl)pentanoic acid]
– | > 50 | COc1ncc(Nc2cc(C(C)CC(=O)O)ccc2N2C[C@@H](C)O[C@@H](C)C2)cn1 (single isomer, unassigned) [Example 741]
– | < 50 | CCOc1ncc(Nc2cc(C(CC)CC(=O)O)ccc2N2CCOC[C@H]2C(C)C)cn1 (single isomer, unassigned) [Example 903]
– | < 50 | CCOc1ccc(NC(=O)Nc2cc(C(COC)CC(=O)O)ccc2N(CC(C)C)C2CCCCC2)cc1 (single isomer, unassigned) [Example 1231, 3-(4-(Cyclohexyl(isobutyl)amino)-3-(3-(4-ethoxyphenyl)ureido)phenyl)-4-methoxybutanoic acid]
– | > 50 | CCOc1ccc(NC(=O)Nc2cc(C(COC)CC(=O)O)ccc2N(CC(C)C)C2CCOCC2)c(F)c1 (single isomer, unassigned) [Example 1215, 3-(3-(3-(4-Ethoxy-2-fluorophenyl)ureido)-4-(isobutyl(tetrahydro-2H-pyran-4-yl)amino)phenyl)-4-methoxybutanoic acid]

The next lines start with the compound.

SMILES | IC50 (human IDO1 [1]) [nM] | IC50 (human IDO1 [2]) [nM]
CCCN(c1ccc(C(CC)CC(=O)O)cc1NC(=O)Nc1ccc(C)cc1)C1CCOCC1 (single isomer, unassigned) [Example 557 Enantiomer 1, 3-(4-(Propyl(tetrahydro-2H-pyran-4-yl)amino)-3-(3-(p-tolyl)ureido)phenyl)pentanoic acid] | < 50 | –
CCCN(c1ccc([C@H](COC)CC(=O)O)cc1Nc1ccc(F)cc1)C1CCOCC1 (single isomer, unassigned) [Example 572] | < 50 | –
CCN(c1ccc([C@@H](COC)CC(=O)O)cc1NC(=O)Nc1ccc(Cl)cc1F)C1CCOCC1 (single isomer, unassigned) [Example 423] | > 50 | –
CCC(CC(=O)O)c1cc(F)c(N(CC)C2CCOCC2)c(Nc2cnc(OCC3CC3)nc2)c1 (single isomer, unassigned) [Example 136, 3-(3-((2-(cyclopropylmethoxy)pyrimidin-5-yl)amino)-4-(ethyl(tetrahydro-2H-pyran-4-yl)amino)-5-fluorophenyl)pentanoic acid] | < 50 | –
CCCN(c1ccc([C@H](COC)CC(=O)O)cc1NC(=O)Nc1ccc(Cl)cc1F)C1CCOCC1 (single isomer, unassigned) [Example 576] | < 50 | –
CCC(CC(=O)O)c1ccc(N(CC2CC2)C(C)C)c(Nc2ccc3c(c2)OC(F)(F)O3)c1 (single isomer, unassigned) [Example 715, 3-(4-((cyclopropylmethyl) (isopropyl)amino)-3-((2,2-difluorobenzo[d][1,3]dioxol-5-yl)amino)phenyl) pentanoic acid] | – | < 50
CCC(CC(=O)O)c1ccc(N(CC(C)C)C2CCCCC2)c(Nc2ccc(Cl)c(OCC3CC3)c2)c1 (single isomer, unassigned) [Example 645, 3-(3-((4-chloro-3-(cyclopropylmethoxy)phenyl)amino)-4-(cyclohexyl (isobutyl)amino)phenyl) pentanoic acid] | – | < 50
CCCN(CC1CC1)c1ccc(C(CC)CC(=O)O)cc1Nc1ccc2nc(C)sc2c1 (single isomer, unassigned) [Example 661, 3-(4-((cyclopropylmethyl)(propyl)amino)-3-((2-methylbenzo[d]thiazol-6-yl)amino)phenyl) pentanoic acid] | – | > 50
CC[C@H](CC(=O)O)c1ccc(N(CC)C2CCOCC2)c(Nc2ccc3nc(C)sc3c2)c1 (single isomer, unassigned) [Example 524] | – | < 50
CCOc1ncc(Nc2cc(C(C)CC(=O)O)ccc2N(CC(C)(C)O)C2CCCCC2)cn1 (single isomer, unassigned) [Example 54, 3-(4-(cyclohexyl(2-hydroxy-2-methylpropyl)amino)-3-((2-ethoxypyrimidin-5-yl)amino)phenyl)butanoic acid] | – | < 50
CCOc1ncc(Nc2cc(C(C)CC(=O)O)ccc2N(CC)C2CCOCC2)cn1 (single isomer, unassigned) [Example 619, 3-(3-((2-ethoxypyrimidin-5-yl)amino)-4-(ethyl (tetrahydro-2H-pyran-4-yl)amino)phenyl)butanoic acid] | – | < 50
CC[C@@H](CC(=O)O)c1ccc(N2CCOC[C@@H]2C(C)C)c(Nc2ccc3c(c2)OC(F)(F)O3)c1 (single isomer, unassigned) [Example 81] | – | < 50
CC[C@@H](CC(=O)O)c1ccc(N(CC)C2CCOCC2)c(NC(=O)Nc2ccc(Cl)cc2F)c1 (single isomer, unassigned) [Example 489] | – | < 5
CC[C@H](CC(=O)O)c1ccc(N(CC(C)(C)O)C2CCOCC2)c(NC(=O)Nc2ccc(C)cc2)c1 (single isomer, unassigned) [Example 208] | – | > 50
CCC(CC(=O)O)c1ccc(N(CC2CC2)C2CCOCC2)c(NC(=O)Nc2cc(C)on2)c1 (single isomer, unassigned) [Example 697, 3-(4-((Cyclopropylmethyl)(tetrahydro-2H-pyran-4-yl)amino)-3-(3-(5-methylisoxazol-3-yl)ureido)phenyl)pentanoic acid] | – | > 50
CCCN(c1ccc([C@@H](CC)CC(=O)O)cc1Nc1ccc2c(c1)OC(F)(F)O2)C1CCOCC1 (single isomer, unassigned) [Example 539] | – | < 5
Cc1nc2ccc(Nc3cc(C(C)(C)CC(=O)O)ccc3N(CC(C)C)CC(C)C)cc2s1 [Example 146, 3-(4-(diisobutylamino)-3-((2-methylbenzo[d]thiazol-6-yl)amino)phenyl)-3-methylbutanoic acid] | – | > 50
CC[C@@H](CC(=O)O)c1ccc(N(CC)C2CCOCC2)c(Nc2ccc(Cl)c(OC)c2)c1 (single isomer, unassigned) [Example 481] | – | < 5
CC[C@@H](CC(=O)O)c1ccc(N(CC(C)C)C2CCS(=O)(=O)CC2)c(NC(=O)Nc2ccc(C)cc2)c1 (single isomer, unassigned) [Example 210] | – | > 50
CCOc1ccc(NC(=O)Nc2cc([C@H](CC)CC(=O)O)ccc2N(CC)C2CCOCC2)cc1 (single isomer, unassigned) [Example 528] | – | < 50
CC[C@@H](CC(=O)O)c1ccc(N(CC)C2CCOCC2)c(Nc2cnc(OC)nc2)c1 (single isomer, unassigned) [Example 479] | – | < 5
CCOc1ccc(NC(=O)Nc2cc([C@H](CC)CC(=O)O)ccc2N(CC(C)C)C2CCS(=O)(=O)CC2)cc1 (single isomer, unassigned) [Example 212] | – | > 50

Reference: patent publication US9790169B2, “IDO inhibitors” (BRISTOL-MYERS SQUIBB COMPANY, priority 2015, dated 2017)
